Assay results: patent US7365080B2, “Pharmaceutical compositions comprising thieno[2,3-c]pyridine derivatives and use thereof” (Rimonyx Pharmaceuticals Ltd., priority 2003, dated 2008)

How the values were obtained:
[1] = target: T1, L-Selectin (Homo sapiens, UniProt P14151); assay: ELISA: inhibition of L-selectin/IgG binding to immobilized heparin (Heparin-BSA); conditions: L-Selectin binding to heparin
T1 construct: purchased Research and Development Systems 728-LS
T1 sequence (P14151 39-332 limits assumed): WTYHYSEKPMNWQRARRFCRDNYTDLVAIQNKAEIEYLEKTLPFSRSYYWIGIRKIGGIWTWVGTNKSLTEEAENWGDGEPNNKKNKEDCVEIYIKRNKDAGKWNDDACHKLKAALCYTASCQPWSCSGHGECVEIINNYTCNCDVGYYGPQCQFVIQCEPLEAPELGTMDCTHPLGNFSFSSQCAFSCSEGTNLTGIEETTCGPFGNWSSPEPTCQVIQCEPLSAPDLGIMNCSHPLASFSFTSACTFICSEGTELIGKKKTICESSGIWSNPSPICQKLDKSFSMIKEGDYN
Description: The inhibitory effect of the compounds of the present invention can be evaluated by several methods in vitro. One assay for measuring GAG-ECAM binding, exemplified herein below, detects the binding of L selectin/IgG to immobilized heparin. Another assay utilizes immobilized L-selectin, or L-selectin fused to protein domains other than IgG. The amount of bound L-selectin is determined by an ELISA assay using, for example, a monoclonal antibody raised against L-selectin, which is conjugated to horseradish peroxidase. […] The Dregg-55 antibody was also shown to inhibit L-selectin-dependent adhesion in vitro, neutrophil accumulation in vitro and inflammation in vivo (Co M. S. et al, Immunotechnology 493: 253-266, 1999).
An in vitro assay was used to assess the ability of test compounds according to formula I to inhibit the interactions of L-selectin with HS-GAGs. The assay was suitable for determining the concentration required for 50% inhibition (IC-50) for each specific compound. In the assay, the GAG used was heparin. Thus, porcine intestinal mucosa heparin conjugated to Bovine Serum Albumin (Heparin-BSA; Sigma Cat. No. H0403) at […] in Phosphate Buffered Saline (PBS; pH 6.5) was added to a 96 well polystyrene ELISA plate (NUNC Cat. No. 442404; 0.1 ml per well) and incubated Over Night (ON) at 4° C. Following the incubation, the plate was washed thoroughly, by immersion, with de-ionized water and PBS (pH 6.5). The ELISA plate was then blocked with BSA (ICN Cat. No.160069, 3%, 200 μl per well) for 1 hour at Room Temperature (RT). Following blocking, the plate was washed with de-ionized water, and then with PBS (pH 6.5) containing Tween 20 (Sigma Cat. No. P-1379, 0.05%). Compounds were synthesized or purchased from ChemDiv Labs (San Diego, Calif.), dissolved in DMSO, diluted in PBS and added to the wells at various concentrations in the range of 0.01 to 300 μM. Recombinant Human L-Selectin/IgG (Research and Development Systems Cat. No.728-LS) dissolved in PBS supplemented with BSA (0.1%) and calcium chloride (1 mM) was added to the ELISA plate (100 μl per well) and incubated for 60 minutes at RT with shaking. Following incubation, the plate was washed with de-ionized water and three times with PBS (pH 6.5) containing Tween 20. Anti-Human IgG Peroxidase Conjugate (1:5000; Sigma Product No. A8667) diluted in PBS supplemented with BSA (0.1%) and calcium chloride (1 mM) was added to the ELISA plate (100 μl per well) and incubated for 30 minutes at RT with shaking. The plate was then washed with de-ionized water and three times with PBS (pH 6.5) containing Tween 20. The peroxidase substrate cromogen, TMB (Dako Cat. No. S1599) was added (100 μl per well) to the ELISA plate and incubated at room temperature. After 15 minutes ELISA Stop Solution (hydrochloric acid 1N, sulfuric acid 3N) was added (200 μl per well) to stop the peroxidase catalyzed colorimetric reaction. The Optical Density (OD) of the samples was measured at 450 nm using an ELISA plate reader (Dynatech MR5000). Data were analyzed with Graphpad Prism software and IC-50 values were established. The P-selectin assay was carried out in a similar fashion, except that Recombinant Human P-Selectin/IgG (Research and Development Systems Cat.No.137-PS) was used.

[2] = tested on: Human T-lymphocytes on human endothelial cells; assay: T-lymphocyte rolling on endothelial cells under shear flow; type: cell-based; conditions: for inhibition at 25 µM: Homo sapiens, high shear flow, read-out: inhibition of cell rolling; for % rolling: test compound (25 μM), shear flow
Description: Human T-lymphocytes were passed over a layer of human endothelial cells according to the method of Lawrence and Springer (Cell 65: 859-873, 1991). At high shear flow, migrating T-lymphocytes adhered transiently and intermittently to the endothelial cells as a consequence of HS-GAG-ECAM interaction. The resulting T-cell rolling was recorded by video camera and the number of rolling cells per defined area during a constant period of time was determined. Soluble heparin (competitor of cell surface GAGs) abolished T-cell rolling under high shear flow conditions. Compounds no. 1, 11 and 25, each at 25 μM, inhibited cell rolling by 90, 90 and 70%, respectively.

[3] = tested on: MCF7 (Breast carcinoma); assay: Inhibition of growth of cancer cell lines (alamar blue); type: cell-based; conditions: Homo sapiens, 48 hours
Description: (§1) Each cell line (MCF7 (Breast carcinoma), NCI-H460 (Non-small cell lung carcinoma), and SF-268 (glioma) was pre-incubated on a microtiter plate. Inhibitor compounds were then added at a concentration of 0.1 μM and the culture incubated for 48 hours. End-point determinations were made with alamar blue (Gray G D, Wickstrom E, Biotechniques 21(5) 780-782, 1996). Results for each compound are presented as the percent of growth of the treated cells as compared to the untreated cells. Compounds, which reduce the growth of any one of the cell lines to approximately 32% or less were considered suitable for further and more extensive study (Monks A et al, J. Natl. Cancer Inst., 83:757-766, 1991. Compound no. 1 inhibited the growth of the cell lines MCF7, NCI-H460, and SF-268 by 99%, 100% and 99%, respectively.

[4] = tested on: NCI-H460 (Non-small cell lung carcinoma); assay: as above; type: cell-based; conditions: Homo sapiens, 48 hours
Description: as §1

[5] = tested on: SF-268 (glioma); assay: as above; type: cell-based; conditions: Homo sapiens, 48 hours
Description: as §1

[6] = tested on: CCR-CEM (Human T Cell leukemia); assay: Inhibition of leukemia cell growth (SRB); type: cell-based; conditions: 10^−8-10^−4 Molar, 48 hours
Description: (§2) Each cell line (RPMI-8226 (Multiple Myeloma), MOLT-4 (Acute lymphoblastic leukemia), CCR-CEM (Human T Cell leukemia), K562 (Chronic myeloid leukemia), SR (Chronic myeloid leukemia) was pre-incubated on a microtiter plate (Monks A et al, J. Natl. Cancer Inst., 83:757-766, 1991). Inhibitor compounds were then added at different concentrations (10^−8-10^−4 Molar) and the culture incubated for 48 hours. A sulforhodamine B (SRB) protein assay was used to estimate cell viability or growth (Skehan P et al, J. Natl. Cancer Inst., 82:1107-1112, 1990). Compound no. 1 inhibited the growth of the cell lines RPMI-8226, MOLT4, CCR-CEM, K562 and SR to 100%, 100%, 100%, 100% and 93%, respectively. There was negligible cell death (less than 15%).

[7] = tested on: K562 (Chronic myeloid leukemia); assay: Inhibition of leukemia cell growth (SRB); type: cell-based; conditions: 10^−8-10^−4 Molar, 48 hours
Description: as §2

[8] = tested on: MOLT-4 (Acute lymphoblastic leukemia); assay: Inhibition of leukemia cell growth (SRB); type: cell-based; conditions: MOLT4; 10^−8-10^−4 Molar, 48 hours
Description: as §2

[9] = tested on: RPMI-8226 (Multiple Myeloma); assay: Inhibition of leukemia cell growth (SRB); type: cell-based; conditions: 10^−8-10^−4 Molar, 48 hours
Description: as §2

[10] = tested on: SR (Chronic myeloid leukemia); assay: Inhibition of leukemia cell growth (SRB); type: cell-based; conditions: 10^−8-10^−4 Molar, 48 hours
Description: as §2

[11] = tested on: RPMI-8226, MOLT-4, CCR-CEM, K562, SR; assay: Leukemia cell lines (SRB): cell death; type: cell-based; conditions: 48 hours
Description: as §2

[12] = tested on: immobilized heparin / L-selectin/IgG; assay: Assay 1: direct interaction with heparin, pre-incubation versus co-incubation with L-selectin; type: binding; conditions: compound 0.1-200 μM, 90 min, washed before L-selectin/IgG
Description: Inhibitor Compounds at final concentration 0.1-200 μM were incubated in the ELISA plate for 90 min, and then washed with incubation buffer. After washing, L-selectin/IgG was added to the wells pre-incubated with compounds. At the same time, in separate control wells, L-selectin was co-incubated with inhibitor Compounds for 90 min. Following the incubation, L-selectin bound to the plate was quantified by antibody conjugated to Horse Radish Peroxidase and OD measurement as performed as described in Example 5.

[13] = tested on: BALB/c mice; assay: Thioglycollate-induced leukocyte and neutrophil infiltration into mouse peritoneum; type: in vivo; conditions: intraperitoneal, 1 hour before thioglycollate; 3 hours
Description: The ability of compounds of the present invention to reduce leukocyte migration to sites of acute inflammation was evaluated in BALB/c mice using a thioglycolate-induced model of peritonitis. In this animal model, interactions of L- and P-selectin with HS-GAGs have been implicated in neutrophil infiltration (Nelson, R. M., 82:3253-3258, 1993; Xie, X. et al., J. Biol. Chem., 275:34818-34825, 2000).
BALB/c mice (6 weeks old, ˜20 g in weight, 15 mice/group) received intraperitoneal injection of an inhibitor compound in 0.2 ml DMSO/Tween/sterile saline 1 hour before administration of thioglycollate (Sigma). Control groups received vehicle and sham controls received no thioglycollate. Mice were injected intraperitoneally with 1 ml of 3% thioglycollate broth (Xie, X. et al., J. Biol. Chem., 275, 34818-34825, 2000). Mice were sacrificed after 3 hours, and the peritoneal cavities were ravaged with […] of ice-cold saline containing 2 mM EDTA to prevent clotting. After red blood cell lysis, leukocytes were counted in a hemocytometer. Neutrophils were counted after staining with Türck. Data was expressed as mean±SEM, and statistical analysis was performed by Student t test. A value of P<0.05 was taken to denote statistical significance.

[14] = tested on: Mice; assay: TNBS induced colitis (Inflammatory Bowel Disease model); type: in vivo, mouse
Description: Control mice (12 per group) were injected intraperitoneally (IP) with Test Compound (TC) Vehicle (Tween 80, 5%, 200 μl). […] The control and experimental mice were injected once per day for 7 successive days. […] 11 in the same experimental model. The compound was administered once a day for 7 days in a suspension with 0.5% methylcellulose per os. There were 12 mice per group and the control mice received 0.5% methylcellulose only. Compound no.

[15] = tested on: Lewis rats; assay: Experimental Autoimmune Encephalomyelitis (MBP p87-99); type: in vivo, rat; conditions: intra-peritoneal once daily for 3 days, 10 and 35 mg/kg
Source text: In autoimmune conditions, T cells reactive to self-antigens escape elimination in the thymus and are activated in the periphery, where they can provoke damage in specific organs. EAE, a model of autoimmune disease that is induced in Lewis rats, bears many similarities to the human disease Multiple Sclerosis (MS). T cells found in brain lesions of MS patients have TCR junctional rearrangements that are identical to T cells found in the spinal cords of Lewis rats immunized with a peptide of myelin basic protein MBP p87-99. In addition, a major T and B cell response in MS patients is directed to MBP p87-99.
EAE is induced in rats by immunization with MBP p87-99. The inhibitor Compounds are administered once daily by intra-peritoneal injection for 3 consecutive days starting 1 day before the appearance of EAE symptoms (day 12 after EAE induction). The degree of clinical disease is scored as follows: 0=no signs; 1=loss of tail tonicity; 2=paralysis of hind limbs; 3=paralysis of all four limbs 4=quadriplegic animal in a moribund state.

IC50 [1] [µM] | level of inhibition of L-selectin binding to heparin, pre-incubation versus co-incubation [12] | SMILES | inhibition at 25 µM [2] [%] | % rolling [2] [%] | inhibition at 0.1 µM [3] [%] | inhibition at 0.1 µM [4] [%] | inhibition at 0.1 µM [5] [%] | growth inhibited to [6] [%] | growth inhibited to [7] [%] | growth inhibited to [8] [%] | growth inhibited to [9] [%] | growth inhibited to [10] [%] | cell death [11] | leukocyte migration into the peritoneal cavity (in words) [13] | colonic damage (score 0 to 10), in words ([14]; IP once per day for 7 days, 10 and 35 mg/kg) | colonic damage (score 0 to 10), in words ([14]; per os once a day for 7 days, 3, 50 and 100 mg/kg) | clinical signs of EAE (in words) [15]
13 |  | CC(C)N1CCc2c(sc(NC(=O)c3ccc(S(=O)(=O)N4CCc5ccccc5C4)cc3)c2C(N)=O)C1 [Compound 1, 2-[[(4-(3,4-dihydro-2(1H)-isoquinolinyl)sulfonyl]benzoyl]amino]-6-(1-methylethyl)-4,5,6,7-tetrahydrothieno[2,3-c]pyridine-3-carboxamide] | 90 | 30 | 99 | 100 | 99 | 100 | 100 | 100 | 100 | 93 | less than 15% |  |  |  | 
0.35 | same level of inhibition | CCN1CCc2c(sc(NC(=O)c3ccc(S(=O)(=O)N(CC)CC)cc3)c2-c2nc3ccccc3s2)C1 [Compound 11, 2-[[4-[(diethylamino)sulfonyl]benzoyl]amino]-3-(benzothiazol-2-yl)-6-ethyl-4,5,6,7-tetrahydrothieno[2,3-c]pyridine] | 90 | <10 |  |  |  |  |  |  |  |  |  | inhibited efficiently | significantly inhibited | significantly inhibited | significantly inhibited
